Experimental data from patent publication US6004959A, “Alkyloxyamino substituted fluorenones and their use as protein kinase-C inhibitors” (Hoechst Marion Roussel, Inc., priority 1997, dated 1999).
Where a name gives a salt, the structure may show the parent alone.

Target: Protein kinase C (PKC)
Test: Protein kinase C assay (96-well, H1 histone phosphorylation, 32P-ATP)
Type: biochemical
Details: PKC partially purified from rat brain; H1 histone 200 μg, 50 μM ATP, 5-7 min, room temperature; estimated error of IC50 less than 10%
Protocol: Protein kinase C (PKC) was partially purified from the cytosol of rat brains as described by […]., Thromb. Res. 44:649-660, 1986. After removing the brains, all manipulations were carried out at 4° C. Briefly, the cerebellum was removed from 8-10 rat brains and each brain was then homogenized in 9 ml sucrose/EDTA (0.32 M sucrose, 1 mM EDTA, 5 mM Tris, pH 7.4). The pooled homogenate was then centrifuged at 1000×g for 10 min at 4° C., the pellet resuspended in the same volume of fresh sucrose/EDTA and recentrifuged at 1000×g for 10 min. at 4° C. The supernatants from each of these spins was pooled and centrifuged at 25,700×g for 30 min. at 4° C., and the resulting pellet homogenized in 20 ml of buffer A. (20 mM Tris pH 7.5, 0.1 mM calcium chloride, 0.4 mM leupeptin), at 4° C. Membrane associated PKC was then pelleted by centrifugation at 45,700×g at 4° C. for 15 min. and resuspended in 20 ml of buffer A. This step was repeated for a total of 3 centrifugations, discarding the supernatants and finally resuspending the pellet in 20 ml of buffer B (20 mM Tris pH 7.5, 1 mM EGTA, 1 mM EDTA, and 0.01 mM leupeptin) and stirring on ice for 30 min. Disassociated PKC was then collected by centrifuging at 45,700×g at 4° C. for 15 min. The pellet was discarded and the supernatant centrifuged at 100,000×g at 4° C. for 60 min. The pellet was again discarded and the supernatant was adjusted to remove all EDTA and EGTA by adding sufficient volume of a stock solution containing 100 mM each CaCl2 and MgCl2 to give a final concentration of 1 mM Ca^++ and 1 mM Mg^++. The resulting slurry was then applied to a 12 cm×1 cm DE-52 (DEAE cellulose, Whatman®) column previously equilibrated with buffer B. […] After washing the column with 70 ml of buffer B to remove unbound proteins, undesired proteins were eluted with 40 ml of buffer B containing 40 mM NaCl and the PKC containing fraction eluted with 20 ml of buffer B containing 150 mM NaCl. The PKC eluate was then concentrated to about 5 ml using an Amicon® ultrafiltration cell fitted with a PM-10 membrane, and excess NaCl removed by adding back 30 ml 5 mM Tris pH 7.4 and reconcentrating to a final volume of about 5 ml. The concentrated and desalted PKC prep was then adjusted to contain 10% glycerol and 0.5% Triton X-100 before aliquoting and storing 200 μL volumes at -70° C. Frozen preps were stable for at least 3 months at -70°0 C. Protein kinase C was assayed using a semi-automated 96-well plate procedure based upon the procedures of Aftab and Hait, and […] and Vial (Aftab, D. T. and W. N. Hait., Anal Biochem. 187:84-88. 1990.; […]. and Vial, H. J., Anal Biochem. 184:283-290. 1990). Briefly, each well of a 96 well "u" well microtiter plate received a total of 100 μl assay volume consisting of final concentrations of 30 mM Tris pH 7.4, 10 mM MgSO4, 1 mM EGTA, 200 μg Hl histone (Sigma Type III-S H5505), 50 μM ATP, 0.5 μCi 30 Ci/mmol ^32 P-ATP, and 30 μl PKC extract diluted in 5 mM Tris, pH 7.4 containing 1 mg per ml each of leupeptin, pepstatin and chymastatin, and 1 mM phenylmethylsulfonylfluoride. Reactions were started by adding the PKC extract and stopped by the addition of 50 μl 40% trichloroacetic acid, followed by 25 μl of 50 mM unlabelled ATP and 25 μl of 0.5% bovine serum albumin, and then collected on glass fiber filters using a Skatron® automatic micro cell harvester. Samples were washed for 30 seconds with 5% trichloroacetic acid, dried for 5 seconds on the harvester, and then transferred to scintillation vials for counting and subsequent data analysis. Reactions were run for five to seven minutes at room temperature. Data were fit to a competitive binding curve using the ENZFITTER® program (Biosoft). The error estimated for the IC50 values was less than 10%.

SMILES | IC50 [µM]
CCN(CC)CCOc1ccc2c(c1)C(=O)c1cccc(OCCN(CC)CC)c1-2 [I.D. No. 11,080, 2,5-Bis[(2-diethylamino)ethoxy]-fluoren-9-one] | 3
CN(C)CCOc1ccc2c(c1)C(=O)c1cccc(OCCN(C)C)c1-2 [I.D. No. 101,209, 2,5-Bis-(2-dimethylamino-ethoxy)-fluoren-9-one] | 11
CN(C)CCCOc1ccc2c(c1)C(=O)c1cccc(OCCCN(C)C)c1-2 [I.D. No. 102,352, 2,5-Bis-(3-dimethylamino-propoxy)-fluoren-9-one] | 50
CCCOc1ccc2c(c1)C(=O)c1cccc(OCCN(CC)CC)c1-2 [I.D. No. 103,049, 5-(2-Diethylamino-ethoxy)-2-propoxy-fluoren-9-one] | 9
CCN(CC)CCCOc1cccc2c1-c1ccc(OC)cc1C2=O [I.D. No. 103,388, 5-(3-Diethylamino-propoxy)-2-methoxy-fluoren-9-one] | 56
CCN(CC)CCOc1cccc2c1-c1ccc(OC)cc1C2=O [I.D. No. 103,949, 5-(2-Diethylamino-ethoxy)-2-methoxy-fluoren-9-one] | 7
CCN(CC)CCOc1ccc2c(c1)-c1c(OCCN(CC)CC)cccc1C2=O [I.D. No. 104,004, 3,5-Bis[(2-diethylamino)ethoxy]-fluoren-9-one] | 4
CCN(CC)CCOc1cccc2c1C(=O)c1cccc(OCCN(CC)CC)c1-2 [I.D. No. 104,147, 1,5-Bis[(diethylamino)ethoxy]-fluoren-9-one] | 15
CCCOc1cc(OC)c2c(c1N)C(=O)c1cccc(OCCN3CCOCC3)c1-2 [I.D. No. 104,427, 5-[2-(morpholino-4-yl)-ethoxy]-1-amino-4-methoxy-2-propyloxy-fluoren-9-one hydrochloride] | 2.3

Second part, the compound after the results:

IC50 [µM] | SMILES
> 10 | CCCOc1cc(OC)c2c(c1)C(=O)c1cccc(OCCN3CCOCC3)c1-2 [I.D. No. 104,439, 5-[2-(morpholino-4-yl)-ethoxy]-4-methoxy-2-propyloxy-fluoren-9-one hydrochloride]
92 | CCN(CC)CCOc1cccc2c1-c1c(OCCN(CC)CC)cccc1C2=O [I.D. No. 104,488]
1 | CCN(CC)CCOc1cccc2c1-c1c(OC)cccc1C2=O [I.D. No. 104,652, 4-(2-diethylamino-ethoxy)-5-methoxy-fluoren-9-one]
0.576 | CCCOc1cc(OC)c2c(c1)C(=O)c1cccc(OCCN(CC)CC)c1-2 [I.D. No. 104,952, 5-(2-diethylamino-ethoxy)-4-methoxy-2-propoxy-fluoren-9-one]
0.16 | CCN(CC)CCOc1cccc2c1-c1c(OC)cc(OC)c(N)c1C2=O [I.D. No. 105,473, 1-Amino-5-(2-diethylamino-ethoxy)-2,4-dimethoxy-fluoren-9-one hydrochloride]
0.079 | CCCOc1cc(OC)c2c(c1N)C(=O)c1cccc(OCCN(CC)CC)c1-2 [I.D. No. 105,509, 1-Amino-5-(2-diethylamino-ethoxy)-4-methoxy-2-propoxy-fluoren-9-one]
1.1 | CCN(CC)CCOc1cc(OC)c2c(c1)C(=O)c1cccc(OCCN(CC)CC)c1-2 [I.D. No. 105,711, 2,5-bis-(2-diethylamino-ethoxy)-4-methoxy-fluoren-9-one]
0.9 | CCN(CC)CCOc1cccc2c1-c1c(OC)cc(OC)cc1C2=O [I.D. No. 105,950, 5-(2-Diethylamino-ethoxy)-2,4-dimethoxy-fluoren-9-one]
